Drawing on US8129371B2, “Thienopyrimidine and pyrazolopyrimidine compounds and their use as mTOR kinase and PI3 kinase inhibitors” (Wyeth LLC, priority 2007, dated 2012), this text covers IC50 for 14 compounds.

Read-outs that look alike come from different tables or passages of the source. Bounds are passed on as bounds.

Assay [1] has as its target T1, Human mTOR (FLAG-TOR) (Homo sapiens, UniProt P42345).
T1 construct: FLAG
The assay can be described thus: Human mTOR kinase assay with purified enzyme, DELFIA format. The assay is classed as biochemical. The procedure, abridged: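 DELFIA readout: Eu-anti-P(T389)-S6K antibody (40 ng/mL, 1 h) on captured His6-S6K from the stopped reaction. Kinase step used purified FLAG-tagged human mTOR with test compound in HEPES (pH 7.4)/MnCl2/DTT buffer, 2 h at room temperature (linear 1–6 h), terminated by EDTA/EGTA.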

For assay [2], the target named is T2, PI3K (Homo sapiens, UniProt P42336).
T2 construct: PI3 Kinase α IC50; other: PI3 Kinase α; other: PI3 Kinase α isoform, fluorescence polarization
T2 sequence (P42336 whole entry, canonical isoform): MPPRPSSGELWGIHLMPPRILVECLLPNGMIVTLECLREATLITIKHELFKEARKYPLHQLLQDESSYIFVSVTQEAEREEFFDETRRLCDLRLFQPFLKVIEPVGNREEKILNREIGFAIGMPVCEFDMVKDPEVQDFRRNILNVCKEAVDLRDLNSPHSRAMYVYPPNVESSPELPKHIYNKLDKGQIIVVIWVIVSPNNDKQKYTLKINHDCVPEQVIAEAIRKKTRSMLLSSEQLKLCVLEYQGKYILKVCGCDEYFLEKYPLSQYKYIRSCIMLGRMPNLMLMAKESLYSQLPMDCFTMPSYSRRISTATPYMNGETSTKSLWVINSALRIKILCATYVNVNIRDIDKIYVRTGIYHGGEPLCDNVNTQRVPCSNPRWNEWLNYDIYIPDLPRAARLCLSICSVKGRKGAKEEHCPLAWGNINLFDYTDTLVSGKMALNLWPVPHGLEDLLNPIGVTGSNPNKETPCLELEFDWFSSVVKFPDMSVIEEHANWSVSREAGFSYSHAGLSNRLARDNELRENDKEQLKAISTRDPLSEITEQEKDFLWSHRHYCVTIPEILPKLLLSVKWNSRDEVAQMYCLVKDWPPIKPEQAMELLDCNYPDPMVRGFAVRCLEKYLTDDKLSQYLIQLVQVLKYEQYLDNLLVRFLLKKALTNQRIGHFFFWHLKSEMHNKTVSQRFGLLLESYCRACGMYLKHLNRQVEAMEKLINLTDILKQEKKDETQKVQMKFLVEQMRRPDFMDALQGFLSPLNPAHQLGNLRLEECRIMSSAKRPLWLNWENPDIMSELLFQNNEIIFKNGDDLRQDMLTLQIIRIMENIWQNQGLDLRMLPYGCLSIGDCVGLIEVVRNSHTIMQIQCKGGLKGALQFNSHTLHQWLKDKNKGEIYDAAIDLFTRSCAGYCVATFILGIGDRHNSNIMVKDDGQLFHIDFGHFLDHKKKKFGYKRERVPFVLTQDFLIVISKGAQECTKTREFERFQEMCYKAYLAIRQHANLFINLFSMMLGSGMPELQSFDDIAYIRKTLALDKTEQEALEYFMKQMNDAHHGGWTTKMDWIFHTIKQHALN
The assay can be described thus: Fluorescence polarization assay for PI3K. The assay is classed as biochemical. The settings on record: read-out: PI3 Kinase α IC50. The procedure, abridged:
(§1)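 Fluorescence-polarization competition readout: after 30–60 min of PIP2/ATP turnover in 1% DMSO, a stop mix with GST-GRP (70 nM) and red probe (10 nM) was added.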

The target of assay [3] is T3, PI3K (Homo sapiens, UniProt P48736).
T3 construct: PI3 Kinase γ IC50; other: PI3 Kinase γ; other: PI3 Kinase γ isoform, fluorescence polarization
T3 sequence (P48736 whole entry, canonical isoform): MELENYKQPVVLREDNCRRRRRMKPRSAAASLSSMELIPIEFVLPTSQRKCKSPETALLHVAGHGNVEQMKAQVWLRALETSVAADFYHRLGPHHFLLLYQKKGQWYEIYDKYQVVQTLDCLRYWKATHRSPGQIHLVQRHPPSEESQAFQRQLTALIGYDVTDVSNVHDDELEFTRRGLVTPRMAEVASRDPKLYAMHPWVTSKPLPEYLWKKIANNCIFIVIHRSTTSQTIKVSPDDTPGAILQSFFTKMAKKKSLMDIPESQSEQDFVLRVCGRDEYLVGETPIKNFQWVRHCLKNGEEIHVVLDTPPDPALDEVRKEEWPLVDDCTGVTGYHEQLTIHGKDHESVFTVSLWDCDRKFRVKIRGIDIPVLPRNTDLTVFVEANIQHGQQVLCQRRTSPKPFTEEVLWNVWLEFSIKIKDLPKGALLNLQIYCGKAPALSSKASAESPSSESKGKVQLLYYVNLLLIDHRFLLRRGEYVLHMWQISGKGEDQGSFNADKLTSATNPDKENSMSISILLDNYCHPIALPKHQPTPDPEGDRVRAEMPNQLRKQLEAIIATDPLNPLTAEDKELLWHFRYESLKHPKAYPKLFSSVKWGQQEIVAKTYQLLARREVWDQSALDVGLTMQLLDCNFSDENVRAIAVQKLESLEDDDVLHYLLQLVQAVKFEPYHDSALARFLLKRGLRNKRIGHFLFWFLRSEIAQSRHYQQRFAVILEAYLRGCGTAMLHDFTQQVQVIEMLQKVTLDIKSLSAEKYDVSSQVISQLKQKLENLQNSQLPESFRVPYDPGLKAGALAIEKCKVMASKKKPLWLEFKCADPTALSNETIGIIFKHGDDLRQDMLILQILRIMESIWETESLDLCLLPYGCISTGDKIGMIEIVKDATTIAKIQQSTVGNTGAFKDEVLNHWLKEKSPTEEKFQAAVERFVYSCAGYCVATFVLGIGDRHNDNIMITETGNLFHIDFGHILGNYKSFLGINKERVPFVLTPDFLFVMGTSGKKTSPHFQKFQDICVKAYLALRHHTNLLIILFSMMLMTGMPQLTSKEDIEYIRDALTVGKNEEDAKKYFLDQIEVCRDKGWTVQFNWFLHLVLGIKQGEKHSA
The assay can be described thus: Fluorescence polarization assay for PI3K. In kind it is biochemical. The settings on record: read-out: PI3 Kinase γ IC50. The procedure, abridged:
as §1
(Fluorescence polarisation rises when a labelled molecule tumbles more slowly, as on binding a larger partner.)

Assay [4] relates to prostate line LNCap. The assay can be described thus: In vitro cell culture growth assay (MTS), LNCap. The following applies: Homo sapiens, LNCaP, 72 h, LNCap cells, three days after drug treatment. The assay is classed as cell-based. The procedure, abridged: (§2)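 Following a one-day attachment period, cells received inhibitors for 3 days. MTS metabolism by viable cells was quantified at 490 nm absorbance and converted to percent of same-plate vehicle control growth.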

In assay [5] the test system is breast line MDA468. The assay can be described thus: In vitro cell culture growth assay (MTS), MDA468. The assay is classed as cell-based. The following applies: Homo sapiens, 72 h, MDA468 cells, three days after drug treatment. The procedure, abridged: as §2
The mark [6] stands for this setting: purified human mTOR enzyme, DELFIA format.
Setting [7] is: PI3 Kinase α isoform, fluorescence polarization.
The mark [8] stands for this setting: PI3 Kinase γ isoform, fluorescence polarization.

In general, IC50 refers to the concentration at which inhibition is half-maximal. Regarding `O=C(Nc1ccncc1)Nc1ccc(-c2nc(N3CC4CNCC(C3)O4)c3cnn(CC(F)(F)F)c3n2)cc1` [Example 337, 1-{4-[4-(9-oxa-3,7-diazabicyclo[3.3.1]non-3-yl)-1-(2,2,2-trifluoroethyl)-1H-pyrazolo[3,4-d]pyrimidin-6-yl]phenyl}-3-pyridin-4-ylurea], the IC50 in assay [1] (setting [6]) worked out at 31.5 nM; in assay [2] (setting [7]), 1790 nM; in assay [3] (setting [8]) it was 7930 nM; in assay [4] it was 2200 nM; in assay [5] it was 1900 nM.
As for `CCOC(=O)N1CCC(n2ncc3c(N4CC5CCC(C4)O5)nc(-c4ccc(NC(=O)Nc5ccncc5)cc4)nc32)CC1` [Example 35, ethyl 4-[4-(8-oxa-3-azabicyclo[3.2.1]oct-3-yl)-6-{4-[(pyridin-4-ylcarbamoyl)amino]phenyl}-1H-pyrazolo[3,4-d]pyrimidin-1-yl]piperidine-1-carboxylate], the IC50 in assay [1] was 0.34 nM; in assay [2] (PI3 Kinase α), 291 nM; in assay [3] (PI3 Kinase γ), 1800 nM; in assay [4], less than 0.8 nM; in assay [5], 9 nM.
Consider `COC(=O)N1CCC(n2ncc3c(N4CC5CCC(C4)O5)nc(-c4ccc(NC(=O)Nc5ccccc5)cc4)nc32)CC1` [Example 11, methyl 4-[4-(8-oxa-3-azabicyclo[3.2.1]oct-3-yl)-6-{4-[(phenylcarbamoyl)amino]phenyl}-1H-pyrazolo[3,4-d]pyrimidin-1-yl]piperidine-1-carboxylate], for which the IC50 in assay [1] is 0.37 nM; in assay [2] (PI3 Kinase α), 272 nM; in assay [3] (PI3 Kinase γ) it was 6820 nM; in assay [4], 10 nM; in assay [5], 120 nM.
`CCn1nc(CN2CCCC2)c2c(N3CC4CCC(C3)O4)nc(-c3ccc(NC(=O)NC)cc3)nc21` [Example 354, 1-{4-[1-ethyl-4-(8-oxa-3-azabicyclo[3.2.1]oct-3-yl)-3-(pyrrolidin-1-ylmethyl)-1H-pyrazolo[3,4-d]pyrimidin-6-yl]phenyl}-3-methylurea]: the IC50 in assay [1] (setting [6]) is 66.5 nM; in assay [2] (setting [7]), 2390 nM; in assay [3] (setting [8]), more than 10000 nM; in assay [4], 1200 nM; in assay [5] it was 2900 nM.
Consider `CC(C)(C)OC(=O)N1CCC(n2ncc3c(N4CC5CCC(C4)O5)nc(-c4ccc(NC(=O)Nc5cccnc5)cc4)nc32)CC1` [Example 24, tert-butyl 4-[4-(8-oxa-3-azabicyclo[3.2.1]oct-3-yl)-6-{4-[(pyridin-3-ylcarbamoyl)amino]phenyl}-1H-pyrazolo[3,4-d]pyrimidin-1-yl]piperidine-1-carboxylate], for which the IC50 in assay [1] came out at 0.39 nM; in assay [2] (PI3 Kinase α), 629 nM; in assay [3] (PI3 Kinase γ) it was 6300 nM; in assay [4], 7 nM; in assay [5] it was 18 nM.
The matching figures for `CCn1ncc2c(N3CC4CCC(C3)O4)nc(-c3ccc(NC(=O)NCCF)cc3)nc21` [Example 42, 1-{4-[1-ethyl-4-(8-oxa-3-azabicyclo[3.2.1]oct-3-yl)-1H-pyrazolo[3,4-d]pyrimidin-6-yl]phenyl}-3-(2-fluoroethyl)urea]: 0.31 nM, 973 nM, more than 10000 nM, 31 nM and 120 nM.
With `O=C(Nc1ccc(-c2nc(N3C[C@H]4C[C@@H]3CO4)c3cnn(CC(F)(F)F)c3n2)cc1)NC1CC1` [Example 342, 1-cyclopropyl-3-(4-{4-[(1R,4R)-2-oxa-5-azabicyclo[2.2.1]hept-5-yl]-1-(2,2,2-trifluoroethyl)-1H-pyrazolo[3,4-d]pyrimidin-6-yl}phenyl)urea], the IC50 was 53 nM in assay [1] (setting [6]); 9500 nM in assay [2] (setting [7]); more than 10000 nM in assay [3] (setting [8]); 670 nM in assay [4]; 1000 nM in assay [5].
With `CCn1ncc2c(N3CC4CCC(C3)O4)nc(-c3ccc(NC(=O)OC)cc3)nc21` [Example 375, methyl {4-[1-ethyl-4-(8-oxa-3-azabicyclo[3.2.1]oct-3-yl)-1H-pyrazolo[3,4-d]pyrimidin-6-yl]phenyl}carbamate], the half-inhibitory concentration (IC50) was 15.5 nM in assay [1] (setting [6]); 4790 nM in assay [2] (setting [7]); more than 10000 nM in assay [3] (setting [8]); 700 nM in assay [4]; 1700 nM in assay [5].
As for `N#CCCn1ncc2c(N3CC4CCC(C3)O4)nc(-c3ccc(NC(=O)Nc4ccc(CO)cc4)cc3)nc21` [Example 218, 1-{4-[1-(2-cyanoethyl)-4-(8-oxa-3-azabicyclo[3.2.1]oct-3-yl)-1H-pyrazolo[3,4-d]pyrimidin-6-yl]phenyl}-3-[4-(hydroxymethyl)phenyl]urea], the IC50 in assay [1] is 0.122 nM; in assay [2] (PI3 Kinase α), 40 nM; in assay [3] (PI3 Kinase γ), 2200 nM; in assay [4] it was less than 1 nM; in assay [5], less than 1 nM.
As to `CCn1ncc2c(N3CC4CCC(C3)O4)nc(-c3ccc(NC(=O)Nc4ccc(N)nc4)cc3)nc21` [Example 287, 1-(6-aminopyridin-3-yl)-3-{4-[1-ethyl-4-(8-oxa-3-azabicyclo[3.2.1]oct-3-yl)-1H-pyrazolo[3,4-d]pyrimidin-6-yl]phenyl}urea], the concentration for half-maximal inhibition (IC50) turned out to be 0.41 nM in assay [1]; 164 nM in assay [2] (PI3 Kinase α); 1460 nM in assay [3] (PI3 Kinase γ); 37 nM in assay [4]; 200 nM in assay [5].
In the case of `CCNC(=O)Nc1ccc(-c2nc(N3CC4CCC(C3)O4)c3cnn(C(C)(C)C)c3n2)cc1` [Example 94], the IC50 is 0.51 nM in assay [1]; 804 nM in assay [2] (PI3 Kinase α); more than 10000 nM in assay [3] (PI3 Kinase γ); 50 nM in assay [4]; 490 nM in assay [5].
For `O=C(Nc1ccc(-c2nc(N3CC4CCC(C3)O4)c3cnn(CC(F)(F)F)c3n2)cc1)Nc1ccc(N2CCOCC2)nc1` [Example 252, 1-(6-morpholin-4-ylpyridin-3-yl)-3-{4-[4-(8-oxa-3-azabicyclo[3.2.1]oct-3-yl)-1-(2,2,2-trifluoroethyl)-1H-pyrazolo[3,4-d]pyrimidin-6-yl]phenyl}urea] the same measures were 0.465 nM, 9500 nM, more than 10000 nM, 1 nM and 8 nM.
In the case of `CNC(=O)Nc1ccc(-c2nc(N3CC4CCC(C3)O4)c3cnn([C@H]4CC[C@H](O)CC4)c3n2)cc1` (relative stereo) [Example 380, 1-{4-[1-(trans-4-hydroxycyclohexyl)-4-(8-oxa-3-azabicyclo[3.2.1]oct-3-yl)-1H-pyrazolo[3,4-d]pyrimidin-6-yl]phenyl}-3-methylurea], the IC50 in assay [1] (setting [6]) was 0.245 nM; in assay [2] (setting [7]), 882 nM; in assay [3] (setting [8]) it was more than 10000 nM; in assay [4], 20 nM; in assay [5] it was 70 nM.
For the compound `CCn1ncc2c(N3CC4CCC(C3)O4)nc(-c3ccc4[nH]ccc4c3)nc21` [Example 76, 1-ethyl-6-(1H-indol-5-yl)-4-(8-oxa-3-azabicyclo[3.2.1]oct-3-yl)-1H-pyrazolo[3,4-d]pyrimidine], the IC50 in assay [1] was 29 nM; in assay [2] (PI3 Kinase α), 6690 nM; in assay [3] (PI3 Kinase γ), more than 10000 nM; in assay [4], 1700 nM; in assay [5], 7000 nM.
